Experimental data published in publication PMC10088252.

Protocol: Dose adjustment was allowed according to the severity of toxicity [Supplementary Table 1].
The primary endpoints were safety, ORR and DCR assessed by investigators. […] AEs referred to treatment-emergent adverse events (TEAEs) and TRAEs were assessed by investigators. Serious adverse events (SAEs) referred to AEs meeting at least one of the following criteria: event leading to death; life-threatening event; event requiring hospitalization or extension of hospital stay; event leading to persistent or evident disability or dysfunction; event leading to congenital malformation or birth defect or event which might lead to injury or that need medical treatment to avoid the above mentioned important medical events.

SMILES: O=C(Nc1ccc(Oc2ccnc3c2CCN3)c(F)c1)c1c[nH]cc(-c2ccc(F)cc2)c1=O
- TRAE Hyperhidrosis, grade 3-4 (450 mg QD (n=12)): 0 n (%)
- TRAE Hyperlipidaemia, any grade (450 mg QD (n=12)): 0 n (%)
- TRAE Hyperlipidaemia, grade 3-4 (450 mg QD (n=12)): 0 n (%)
- TRAE Hypertension, any grade (450 mg QD (n=12)): 0 n (%)
- TRAE Hypertension, grade 3-4 (450 mg QD (n=12)): 0 n (%)
- TRAE Hypoaesthesia oral, any grade (450 mg QD (n=12)): 2 (16.7) n (%)
- TRAE Hypoaesthesia oral, grade 3-4 (450 mg QD (n=12)): 0 n (%)
- TRAE Hypocalcaemia, any grade (450 mg QD (n=12)): 0 n (%)
- TRAE Hypocalcaemia, grade 3-4 (450 mg QD (n=12)): 0 n (%)
- TRAE Hypotension, any grade (450 mg QD (n=12)): 0 n (%)
- TRAE Hypotension, grade 3-4 (450 mg QD (n=12)): 0 n (%)
- TRAE Insomnia, any grade (450 mg QD (n=12)): 0 n (%)
- TRAE Insomnia, grade 3-4 (450 mg QD (n=12)): 0 n (%)
- TRAE Leukopenia, any grade (450 mg QD (n=12)): 1 (8.3) n (%)
- TRAE Leukopenia, grade 3-4 (450 mg QD (n=12)): 0 n (%)
- TRAE Nausea, any grade (450 mg QD (n=12)): 0 n (%)
- TRAE Nausea, grade 3-4 (450 mg QD (n=12)): 0 n (%)
- TRAE Neuritis, any grade (450 mg QD (n=12)): 0 n (%)
- TRAE Neuritis, grade 3-4 (450 mg QD (n=12)): 0 n (%)
- TRAE Occult blood, any grade (450 mg QD (n=12)): 1 (8.3) n (%)
- TRAE Occult blood, grade 3-4 (450 mg QD (n=12)): 0 n (%)
- TRAE Oedema peripheral, any grade (450 mg QD (n=12)): 1 (8.3) n (%)
- TRAE Oedema peripheral, grade 3-4 (450 mg QD (n=12)): 0 n (%)
- TRAE Onycholysis, any grade (450 mg QD (n=12)): 1 (8.3) n (%)
- TRAE Onycholysis, grade 3-4 (450 mg QD (n=12)): 0 n (%)
- TRAE Oropharyngeal pain, any grade (450 mg QD (n=12)): 0 n (%)
- TRAE Oropharyngeal pain, grade 3-4 (450 mg QD (n=12)): 0 n (%)
- TRAE PPE, any grade (450 mg QD (n=12)): 3 (25.0) n (%)
- TRAE PPE, grade 3-4 (450 mg QD (n=12)): 1 (8.3) n (%)
- TRAE Paraesthesia, any grade (450 mg QD (n=12)): 1 (8.3) n (%)
- TRAE Paraesthesia, grade 3-4 (450 mg QD (n=12)): 0 n (%)
- TRAE Proteinuria, any grade (450 mg QD (n=12)): 3 (25.0) n (%)
- TRAE Proteinuria, grade 3-4 (450 mg QD (n=12)): 1 (8.3) n (%)
- TRAE Pruritus, any grade (450 mg QD (n=12)): 1 (8.3) n (%)
- TRAE Pruritus, grade 3-4 (450 mg QD (n=12)): 0 n (%)
- TRAE Rash maculo-papular, any grade (450 mg QD (n=12)): 0 n (%)
- TRAE Rash maculo-papular, grade 3-4 (450 mg QD (n=12)): 0 n (%)
- TRAE Sinus tachycardia, any grade (450 mg QD (n=12)): 0 n (%)
- TRAE Sinus tachycardia, grade 3-4 (450 mg QD (n=12)): 0 n (%)
- TRAE Skin fissures, any grade (450 mg QD (n=12)): 0 n (%)
- TRAE Skin fissures, grade 3-4 (450 mg QD (n=12)): 0 n (%)
- TRAE Supraventricular extrasystoles, any grade (450 mg QD (n=12)): 0 n (%)
- TRAE Supraventricular extrasystoles, grade 3-4 (450 mg QD (n=12)): 0 n (%)
- TRAE Thrombocytopenia, any grade (450 mg QD (n=12)): 0 n (%)
- TRAE Thrombocytopenia, grade 3-4 (450 mg QD (n=12)): 0 n (%)
- TRAE Upper respiratory tract infection, any grade (450 mg QD (n=12)): 0 n (%)
- TRAE Upper respiratory tract infection, grade 3-4 (450 mg QD (n=12)): 0 n (%)
- TRAE Urinary retention, any grade (450 mg QD (n=12)): 0 n (%)
- TRAE Urinary retention, grade 3-4 (450 mg QD (n=12)): 0 n (%)
- TRAE Urinary tract infection, any grade (450 mg QD (n=12)): 1 (8.3) n (%)
- TRAE Urinary tract infection, grade 3-4 (450 mg QD (n=12)): 0 n (%)
- TRAE Ventricular arrhythmia, any grade (450 mg QD (n=12)): 1 (8.3) n (%)
- TRAE Ventricular arrhythmia, grade 3-4 (450 mg QD (n=12)): 0 n (%)
- TRAE Ventricular extrasystoles, any grade (450 mg QD (n=12)): 0 n (%)
- TRAE Ventricular extrasystoles, grade 3-4 (450 mg QD (n=12)): 0 n (%)
- TRAE Vomiting, any grade (450 mg QD (n=12)): 1 (8.3) n (%)
- TRAE Vomiting, grade 3-4 (450 mg QD (n=12)): 0 n (%)
- TRAE Weight loss, any grade (450 mg QD (n=12)): 0 n (%)
- TRAE Weight loss, grade 3-4 (450 mg QD (n=12)): 0 n (%)
- patients with TEAE of pulmonary infection leading to death, deemed unrelated (450 mg QD cohort): One
- TRAE Accessory nerve disorder, any grade (600 mg QD (n=10)): 0 n (%)
- TRAE Accessory nerve disorder, grade 3-4 (600 mg QD (n=10)): 0 n (%)
- TRAE Activated partial thromboplastin time prolonged, any grade (600 mg QD (n=10)): 0 n (%)
- TRAE Activated partial thromboplastin time prolonged, grade 3-4 (600 mg QD (n=10)): 0 n (%)
- TRAE Anaemia, any grade (600 mg QD (n=10)): 1 (10.0) n (%)
- TRAE Anaemia, grade 3-4 (600 mg QD (n=10)): 0 n (%)
- TRAE Anaesthesia oral, any grade (600 mg QD (n=10)): 1 (10.0) n (%)
- TRAE Anaesthesia oral, grade 3-4 (600 mg QD (n=10)): 0 n (%)
- TRAE Arrhythmia, any grade (600 mg QD (n=10)): 1 (10.0) n (%)
- TRAE Arrhythmia, grade 3-4 (600 mg QD (n=10)): 0 n (%)
- TRAE Arthralgia, any grade (600 mg QD (n=10)): 0 n (%)
- TRAE Arthralgia, grade 3-4 (600 mg QD (n=10)): 0 n (%)
- TRAE Asthenia, any grade (600 mg QD (n=10)): 3 (30.0) n (%)
- TRAE Asthenia, grade 3-4 (600 mg QD (n=10)): 1 (10.0) n (%)
- TRAE Blister, any grade (600 mg QD (n=10)): 0 n (%)
- TRAE Blister, grade 3-4 (600 mg QD (n=10)): 0 n (%)
- TRAE Chest discomfort, any grade (600 mg QD (n=10)): 0 n (%)
- TRAE Chest discomfort, grade 3-4 (600 mg QD (n=10)): 0 n (%)
- TRAE Chronic kidney disease, any grade (600 mg QD (n=10)): 0 n (%)
- TRAE Chronic kidney disease, grade 3-4 (600 mg QD (n=10)): 0 n (%)
- TRAE Constipation, any grade (600 mg QD (n=10)): 1 (10.0) n (%)
- TRAE Constipation, grade 3-4 (600 mg QD (n=10)): 0 n (%)
- TRAE Cough, any grade (600 mg QD (n=10)): 1 (10.0) n (%)
- TRAE Cough, grade 3-4 (600 mg QD (n=10)): 0 n (%)
